This is an account of results in patent US8524707B2, “Bicyclic pyrazoles as protein kinase inhibitors” (Nerviano Medical Sciences S.r.l., priority 2008, dated 2013).

pIC50: −log10 of the molar value. Like-named read-outs stand apart in the source and are kept apart here.

Common to all, as to assay type: cell-based
The subject of assay [1] is human melanoma cells Mewo (with wild-type B-Raf). In words: In vitro cell proliferation assay, Mewo. The conditions noted are these: 72 hours, cellular ATP monitoring. The method, then:
(§1) Exponentially growing human melanoma cells A375 (with a mutated B-RAF) and human melanoma cells Mewo (with wild-type B-Raf) were seeded and incubated at 37° C. in a humidified 5% CO2 atmosphere. After 24 hours, scalar doses of the compound were added to the medium and cells oncubated for 72 hours. At the end of treatment, cells were washed and counted. Cell number was determined by a cellular adenosine triphosphate monitoring system. Cell proliferation was compared to control cells and the concentration inhibiting cell growth by 50% was calculated.

Assay [2] has as its system human melanoma cells A375 (with a mutated B-RAF). The experiment in a line: In vitro cell proliferation assay, A375. The conditions noted are these: A-375, 72 hours, cellular ATP monitoring. As to the method:
as §1

Assay [3] has as its system p-MAPK (T202/Y204) in A375 human melanoma cells, having a mutated B-RAF. In words: p-MAPK (T202/Y204) ArrayScan assay. As to the method:
A375 human melanoma cells, having a mutated B-RAF, are seeded in 384-well poly-lysine coated plates (Matrix) at a density of 1000 cells/well with appropriate medium supplemented with 10% FCS and incubated for 16-24 hours. Cells are treated for 1.5 or 2 hours with increasing doses of compounds (starting dose 10 μM, dilution factor 2.5). At the end of the treatment cells are fixed with p-formaldehyde 3.7% for 15-30 min, then washed twice with D-PBS ([…]) and permeabilized with D-PBS containing 0.1% Triton X-100 and 1% BSA (Sigma-Aldrich) for 15 minutes at room temperature (staining solution). […] After removal of antibody solution, the anti-mouse Cy™2-conjugated (Green) secondary antibody (Amersham) diluted 1:500 in staining solution containing […] DAPI is added. The plate is incubated for 1 hour at 37° C., washed twice and red with Cellomics' ArrayScan VTI (4 fields/well, CytoNucTrans algorithm).
The parameter “MEAN_RingAvgIntenCh2”, which measures the mean cytoplasmatic fluorescence intensity associated to p-MAPK staining, is reported as the final result.

Setting [4] is: A-375, A375 cells treated 1.5 or 2 hours, p-MAPK staining, MEAN_RingAvgIntenCh2, read-out: Array Scan A375 IC50.
The mark [5] stands for this setting: A-375, read-out: Array Scan A375 IC50.

Take `O=C(Nc1ccc(C(F)(F)F)cc1)Nc1cccc(-c2nn3ccsc3c2-c2ccncc2)c1` [compound 22, 1-[3-(7-pyridin-4-yl-pyrazolo[5,1-b]thiazol-6-yl)-phenyl]-3-(4-trifluoromethyl-phenyl)-urea]: the negative-log IC50 (pIC50) in assay [1] is 5.27; in assay [2], 5.99; in assay [3] (setting [4]), 6.36.

`O=C(Nc1ccc(Cl)cc1)Nc1cccc(-c2nn3c(c2-c2ccncc2)SCC3)c1` [compound 6, 1-(4-chloro-phenyl)-3-[3-(7-pyridin-4-yl-2,3-dihydro-pyrazolo[5,1-b]thiazol-6-yl)-phenyl]-urea]: the figures for the pIC50 in assay [1], in assay [2] and in assay [3] (setting [4]) were 5.23, 5.63 and 5.86, respectively.

For the compound `O=S(=O)(Nc1cccc(-c2nn3c(c2-c2ccncc2)SCCC3)c1)c1ccsc1` [compound 14, thiophene-3-sulfonic acid [3-(3-pyridin-4-yl-6,7-dihydro-5H-pyrazolo[5,1-b][1,3]-thiazin-2-yl)-phenyl]-amide], the figures for the pIC50 in assay [1], in assay [2] and in assay [3] (setting [4]) were below 5.00, 5.15 and 5.33, respectively.

With `O=S(=O)(Nc1cccc(-c2nn3c(c2-c2ccncc2)SCC3)c1)c1cc(F)ccc1F` [compound 11, 2,5-difluoro-N-[3-(7-pyridin-4-yl-2,3-dihydro-pyrazolo[5,1-b]thiazol-6-yl)-phenyl]-benzenesulfonamide], the negative logarithm of the IC50 (pIC50) in assay [1] was below 5.00; in assay [2], 6.18; in assay [3] (setting [4]), 6.59.

Take `O=S(=O)(Nc1cccc(-c2nn3c(c2-c2ccncc2)SCCC3)c1)c1cc(F)ccc1F` [compound 9, 2,5-difluoro-N-[3-(3-pyridin-4-yl-6,7-dihydro-5H-pyrazolo[5,1-b][1,3]thiazin-2-yl)-phenyl]-benzenesulfonamide]: the pIC50 in assay [1] is 5.37; in assay [2], 5.89; in assay [3] (setting [4]), 6.34.

For the compound `CC(C)(C)c1ccc(NC(=O)c2cccc(-c3nn4c(c3-c3ccncc3)SCC4)c2)cc1` [compound 15, N-(4-tert-butyl-phenyl)-3-(7-pyridin-4-yl-2,3-dihydro-pyrazolo[5,1-b]thiazol-6-yl)-benzamide], the pIC50 in assay [1] was 5.51; in assay [2], 6.17; in assay [3] (setting [4]), 6.32.

On to `O=C(Nc1ccc(C(F)(F)F)cc1)Nc1cccc(-c2nn3c(c2-c2ccncc2)[S+]([O-])CC3)c1` (stereo not drawn) [compound 19, 1-[3-(1-oxo-7-pyridin-4-yl-2,3-dihydro-pyrazolo[5,1-b]thiazol-6-yl)-phenyl]-3-(4-trifluoromethyl-phenyl)-urea], for which the pIC50 was below 5.00 in assay [1], 5.11 in assay [2] and 5.33 in assay [3] (setting [4]).

For the compound `O=S1(=O)CCn2nc(-c3cccc(O)c3)c(-c3ccncc3)c21` [compound 10, 3-(1,1-dioxo-7-pyridin-4-yl-2,3-dihydro-pyrazolo[5,1-b]thiazol-6-yl)-phenol], the values for the pIC50 in assay [1], in assay [2] and in assay [3] (setting [4]) were below 5.00, 5.70 and 6.21, respectively.

Take `Oc1cccc(-c2nn3ccsc3c2-c2ccncc2)c1` [compound 20, 3-(7-pyridin-4-yl-pyrazolo[5,1-b]thiazol-6-yl)-phenol]: the negative-log IC50 (pIC50) in assay [1] was below 5.00; in assay [2], 5.93; in assay [3] (setting [4]) it was 6.44.

As to `O=C(Nc1ccc(C(F)(F)F)cc1)Nc1cccc(-c2nn3c(c2-c2ccncc2)SCCC3)c1` [compound 3, 1-[3-(3-pyridin-4-yl-6,7-dihydro-5H-pyrazolo[5,1-b][1,3]thiazin-2-yl)-phenyl]-3-(4-trifluoromethyl-phenyl)-urea], the pIC50 in assay [1] was 5.60; in assay [2] it was 6.04; in assay [3] (setting [4]), 6.11.

With `Oc1cccc(-c2nn3c(c2-c2ccncc2)SCC3)c1` [compound 7, 3-(7-pyridin-4-yl-2,3-dihydro-pyrazolo[5,1-b]thiazol-6-yl)-phenol], the pIC50 was below 5.00 in assay [1], 6.02 in assay [2] and 6.12 in assay [3] (setting [4]).

As to `O=S(=O)(Nc1ccc(F)c(-c2nn3c(c2-c2ccncc2)SCC3)c1F)c1cc(F)ccc1F` [compound 23, N-[2,4-difluoro-3-(7-pyridin-4-yl-2,3-dihydro-pyrazolo[5,1-b]thiazol-6-yl)-phenyl]-2,5-difluoro-benzenesulfonamide], the pIC50 in assay [1] is below 5.00; in assay [2], 6.54; in assay [3] (setting [4]), 7.70.

For the compound `NC(=O)c1csc2c(-c3ccncc3)c(-c3cccc(NS(=O)(=O)c4cc(F)ccc4F)c3)nn12` [compound 17, 6-[3-(2,5-difluoro-benzenesulfonylamino)-phenyl]-7-pyridin-4-yl-pyrazolo[5,1-b]thiazole-3-carboxylic acid amide], the pIC50 was below 5.00 in assay [1], 5.87 in assay [2] and 5.93 in assay [3] (setting [4]).

On to `Oc1cccc(-c2nn3c(c2-c2ccncc2)SCCC3)c1` [compound 8, 3-(3-pyridin-4-yl-6,7-dihydro-5H-pyrazolo[5,1-b][1,3]thiazin-2-yl)-phenol], for which the negative-log IC50 (pIC50) in assay [1] was below 5.00; in assay [2], 5.82; in assay [3] (setting [5]), 5.69.

In the case of `O=S(=O)(Nc1cccc(-c2nn3c(c2-c2ccncc2)SCCC3)c1)c1ccco1` [compound 13, furan-2-sulfonic acid [3-(3-pyridin-4-yl-6,7-dihydro-5H-pyrazolo[5,1-b][1,3]thiazin-2-yl)-phenyl]-amide], the figures for the pIC50 in assay [1], in assay [2] and in assay [3] (setting [4]) were below 5.00, 5.03 and 5.52, respectively.

Consider `O=S(=O)(Nc1cccc(-c2nn3ccsc3c2-c2ccncc2)c1)c1cc(F)ccc1F` [compound 21, 2,5-difluoro-N-[3-(7-pyridin-4-yl-pyrazolo[5,1-b]thiazol-6-yl)-phenyl]-benzenesulfonamide], for which the results for the pIC50 in assay [1], in assay [2] and in assay [3] (setting [4]) were below 5.00, 5.50 and 6.68, respectively.

On to `O=C(Nc1ccc(Cl)cc1)Nc1cccc(-c2nn3c(c2-c2ccncc2)SCCC3)c1` [compound 1, 1-(4-chloro-phenyl)-3-[3-(3-pyridin-4-yl-6,7-dihydro-5H-pyrazolo[5,1-b][1,3]thiazin-2-yl)-phenyl]-urea], for which the pIC50 in assay [1] was 5.44; in assay [2], 5.61; in assay [3] (setting [4]), 5.13.

Regarding `O=S(=O)(Nc1cccc(-c2nn3c(c2-c2ccncc2)SCCC3)c1)c1cccc(F)c1` [compound 4, 3-fluoro-N-[3-(3-pyridin-4-yl-6,7-dihydro-5H-pyrazolo[5,1-b][1,3]thiazin-2-yl)-phenyl]-benzenesulfonamide], the pIC50 in assay [1] is below 5.00; in assay [2], 5.12; in assay [3] (setting [4]) it was 5.79.

As for `O=C(Cc1ccc(C(F)(F)F)cc1)Nc1cccc(-c2nn3c(c2-c2ccncc2)SCCC3)c1` [compound 12, N-[3-(3-pyridin-4-yl-6,7-dihydro-5H-pyrazolo[5,1-b][1,3]thiazin-2-yl)-phenyl]-2-(4-trifluoromethyl-phenyl)-acetamide], the negative logarithm of the IC50 (pIC50) in assay [1] was below 5.00; in assay [2], 5.41; in assay [3] (setting [4]), 5.19.

Turning to `CC(C)(C)c1ccc(NC(=O)Nc2cccc(-c3nn4c(c3-c3ccncc3)SCC4)c2)cc1` [compound 18, 1-(4-tert-butyl-phenyl)-3-[3-(7-pyridin-4-yl-2,3-dihydro-pyrazolo[5,1-b]thiazol-6-yl)-phenyl]-urea], the pIC50 in assay [1] was below 5.00; in assay [2] it was 5.67; in assay [3] (setting [4]) it was 5.64.

Consider `O=C(Nc1ccc(C(F)(F)F)cc1)Nc1cccc(-c2nn3c(c2-c2ccncc2)SCC3)c1` [compound 5, 1-[3-(7-pyridin-4-yl-2,3-dihydro-pyrazolo[5,1-b]thiazol-6-yl)-phenyl]-3-(4-trifluoromethyl-phenyl)urea], for which the pIC50 in assay [1] was 5.58; in assay [2], 6.37; in assay [3] (setting [5]) it was 6.22.

For the compound `Cc1ccc(NC(=O)Nc2cccc(-c3nn4c(c3-c3ccncc3)SCCC4)c2)cc1` [compound 2, 1-[3-(3-pyridin-4-yl-6,7-dihydro-5H-pyrazolo[5,1-b][1,3]thiazin-2-yl)-phenyl]-3-p-tolyl-urea], the pIC50 is 5.14 in assay [1], 5.43 in assay [2] and 5.25 in assay [3] (setting [4]).

`O=C(Nc1ccc(C(F)(F)F)cc1)c1cccc(-c2nn3c(c2-c2ccncc2)SCC3)c1` [compound 24, 3-(7-pyridin-4-yl-2,3-dihydro-pyrazolo[5,1-b]thiazol-6-yl)-N-(4-trifluoromethyl-phenyl)-benzamide]: the values for the negative logarithm of the IC50 (pIC50) in assay [1], in assay [2] and in assay [3] (setting [4]) were 5.29, 5.91 and 5.84, respectively.

A word on the pIC50: it is −log10 of the IC50, conventionally taken in molar units.
